For 12 compounds, GI50 and TGI results are on record in PubChem BioAssay (NCI).

Some test systems named below: SNB-19 CNS; TK-10 renal; OVCAR-5 ovarian; SNB-75 CNS; HOP-62 NSCLC; LOX IMVI melanoma; RPMI-8226 leukemia; OVCAR-3 ovarian; NCI-H460 lung; NCI-H226 lung.
Test in all cases: NCI anticancer screen, dose series, 48 h

“And” between values parts separate entries of the source, which are not always exact repeats. Equal values may be shown once.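 Growth conditions: 96-well plates. Treatment: test compound, 48 hours, 5 concentrations. Analysis: linear interpolation between bracketing concentrations; unreached endpoints set to highest concentration. At the GI50, growth is halved. Definition used: TGI = concentration required for complete inhibition of growth.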 Bounds are passed on as bounds.

As for `CCC1C(C)C=NN1c1nc(N)nc(C(C#N)=Nc2ccc(N(C)C)cc2)n1` (stereo not given), the GI50 with SNB-19 CNS was more than 50 µM; in the experiment with TK-10 renal, 10.6 µM; in the experiment with OVCAR-5 ovarian it was 10.2 µM; in the experiment with SNB-75 CNS it was 8.95 µM; in the experiment with HOP-62 NSCLC it was 18.8 µM; with LOX IMVI melanoma, 8.53 µM. Besides, the GI50 in the experiment with RPMI-8226 leukemia is 2.55 µM; in the experiment on OVCAR-3 ovarian it was 10.1 µM; in the experiment with NCI-H460 lung, 11.1 µM; in the experiment on NCI-H226 lung, 10.8 µM. The TGI is more than 50 µM in the experiment with SNB-19 CNS; 18.9 µM in the experiment on TK-10 renal; 26.6 µM in the experiment with OVCAR-5 ovarian; 22.6 µM in the experiment with SNB-75 CNS; more than 50 µM in the experiment on HOP-62 NSCLC; 15.7 µM in the experiment on LOX IMVI melanoma. Further, the TGI in the experiment on RPMI-8226 leukemia was more than 50 µM; with OVCAR-3 ovarian, 21.8 µM; with NCI-H460 lung, 24.5 µM; in the experiment on NCI-H226 lung, 28.8 µM.
As to `CC1=C(C(=O)NCc2ccccc2)C(c2ccc(Cl)c(Cl)c2)C(C(=O)NCc2ccccc2)=C(C)N1`, the TGI in the experiment on SNB-19 CNS, in the experiment with TK-10 renal, with OVCAR-5 ovarian, with SNB-75 CNS, in the experiment with HOP-62 NSCLC and with LOX IMVI melanoma was more than 100 µM throughout. Also, the TGI in the experiment on RPMI-8226 leukemia, in the experiment with OVCAR-3 ovarian, in the experiment on NCI-H460 lung and in the experiment on NCI-H226 lung was more than 100 µM each time.
`O=[N+]([O-])c1cccc(-c2nc(-c3ccc(Cl)cc3Cl)cn2-c2ccccc2)c1`: the GI50 is 2.55 µM in the experiment with SNB-19 CNS; 0.612 µM in the experiment on TK-10 renal; 3.54 µM in the experiment with OVCAR-5 ovarian; 0.509 µM in the experiment on SNB-75 CNS; 1.39 µM in the experiment with HOP-62 NSCLC; 2.98 µM with LOX IMVI melanoma. The GI50 is 0.00546 µM with RPMI-8226 leukemia, 0.458 µM with OVCAR-3 ovarian, 0.598 µM in the experiment with NCI-H460 lung and 3.17 µM in the experiment with NCI-H226 lung. Moreover, the TGI is more than 18.2 µM in the experiment on SNB-19 CNS; 1.13 µM in the experiment on TK-10 renal; 24.6 µM in the experiment on OVCAR-5 ovarian; 1.34 µM in the experiment with SNB-75 CNS; 7.56 µM in the experiment on HOP-62 NSCLC; more than 30.7 µM in the experiment on LOX IMVI melanoma. Further, the TGI in the experiment on RPMI-8226 leukemia is 1.79 µM; with OVCAR-3 ovarian, 0.945 µM; with NCI-H460 lung it was 1.12 µM; with NCI-H226 lung it was more than 33.3 µM.
As to `O=C1CC[C@H](N2Cc3c(OCc4ccc(CN5CCOCC5)cc4)cccc3C2=O)C(=O)N1`, the GI50 with SNB-19 CNS, in the experiment with TK-10 renal, with OVCAR-5 ovarian, in the experiment with SNB-75 CNS, in the experiment on HOP-62 NSCLC and in the experiment with LOX IMVI melanoma was more than 100 µM each time. Moreover, the GI50 in the experiment on RPMI-8226 leukemia, with OVCAR-3 ovarian, with NCI-H460 lung and in the experiment on NCI-H226 lung was more than 100 µM each time. Further, the TGI with SNB-19 CNS, in the experiment with TK-10 renal, in the experiment with OVCAR-5 ovarian, with SNB-75 CNS, in the experiment with HOP-62 NSCLC and in the experiment with LOX IMVI melanoma was more than 100 µM each time. Further, the TGI in the experiment on RPMI-8226 leukemia, with OVCAR-3 ovarian, in the experiment on NCI-H460 lung and with NCI-H226 lung was more than 100 µM in each case.
As to `CCN(CC)c1c(-c2ccccc2)n[nH]c1C(=O)OC`, the GI50 was 46.4 µM in the experiment on SNB-19 CNS; 22.5 µM in the experiment with TK-10 renal; 31 µM with OVCAR-5 ovarian; 33.9 µM in the experiment with SNB-75 CNS; 44.6 µM with HOP-62 NSCLC; 35.3 µM with LOX IMVI melanoma. Besides, the GI50 was 14.6 µM with RPMI-8226 leukemia, 15.1 µM with OVCAR-3 ovarian, 30.3 µM in the experiment on NCI-H460 lung and 16.9 µM in the experiment with NCI-H226 lung. Further, the TGI is more than 100 µM in the experiment on SNB-19 CNS; 59.2 µM with TK-10 renal; more than 100 µM in the experiment on OVCAR-5 ovarian; more than 100 µM with SNB-75 CNS; more than 100 µM in the experiment with HOP-62 NSCLC; more than 100 µM in the experiment on LOX IMVI melanoma. For the same compound, the TGI in the experiment on RPMI-8226 leukemia is 38.4 µM; in the experiment with OVCAR-3 ovarian, 36.8 µM; with NCI-H460 lung, more than 100 µM; in the experiment with NCI-H226 lung, 38.5 µM.
With `CC1=CC(C)(c2c[nH]c3ccccc23)CC(C)(C)c2c1[nH]c1ccccc21` (stereo not given), the TGI is 74.7 µM in the experiment with SNB-19 CNS; more than 100 µM with TK-10 renal; 36.4 µM with OVCAR-5 ovarian; 67.4 µM in the experiment with SNB-75 CNS; 79.7 µM in the experiment on HOP-62 NSCLC; 31.5 µM with LOX IMVI melanoma. Besides, the TGI with RPMI-8226 leukemia is 38.9 µM; with OVCAR-3 ovarian it was 28.6 µM; in the experiment on NCI-H460 lung, 34.5 µM; in the experiment with NCI-H226 lung, 37.1 µM.
As for `Cc1ccc(C(=O)NCCCOc2ccc(N3C(N)=NC(N)=NC3(C)C)cc2Cl)cc1S(=O)(=O)F`, the GI50 is 75 µM in the experiment with SNB-19 CNS; more than 100 µM in the experiment with TK-10 renal; more than 100 µM in the experiment on OVCAR-5 ovarian; 13.4 µM in the experiment with SNB-75 CNS; more than 100 µM with HOP-62 NSCLC; 5.05 µM in the experiment with LOX IMVI melanoma. The GI50 in the experiment on RPMI-8226 leukemia was 24.7 µM; with OVCAR-3 ovarian, more than 100 µM; in the experiment on NCI-H460 lung it was 8.44 µM; in the experiment on NCI-H226 lung, more than 100 µM. The TGI in the experiment on SNB-19 CNS, in the experiment on TK-10 renal, with OVCAR-5 ovarian, with SNB-75 CNS, in the experiment with HOP-62 NSCLC and with LOX IMVI melanoma was more than 100 µM each time. Moreover, the TGI in the experiment on RPMI-8226 leukemia, in the experiment on OVCAR-3 ovarian, with NCI-H460 lung and in the experiment with NCI-H226 lung was more than 100 µM each time.
As to `Cc1cc(-c2nnc(/C=C/c3ccc4c(c3)OCO4)o2)n[nH]1`, the GI50 in the experiment on SNB-19 CNS is 32.6 µM; in the experiment on TK-10 renal it was 22.3 µM; with OVCAR-5 ovarian, 38.5 µM; with SNB-75 CNS, 9.02 µM; with HOP-62 NSCLC, 17.5 µM; in the experiment with LOX IMVI melanoma, 15.9 µM. Moreover, the GI50 is 2.99 µM in the experiment on RPMI-8226 leukemia, 4.6 µM in the experiment with OVCAR-3 ovarian, 15.1 µM with NCI-H460 lung and more than 50 µM in the experiment on NCI-H226 lung. Moreover, the TGI is more than 50 µM in the experiment with SNB-19 CNS; more than 50 µM in the experiment on TK-10 renal; more than 50 µM in the experiment with OVCAR-5 ovarian; 36.2 µM in the experiment on SNB-75 CNS; more than 50 µM with HOP-62 NSCLC; more than 50 µM in the experiment with LOX IMVI melanoma. The TGI in the experiment on RPMI-8226 leukemia is 32 µM; in the experiment on OVCAR-3 ovarian it was 20.7 µM; in the experiment on NCI-H460 lung it was more than 50 µM; in the experiment on NCI-H226 lung, more than 50 µM.
Turning to `CCCCC(C)/C=C/C(=O)C1=C(O)/C(=C/C(=O)O)OC1=O` (stereo not given), the TGI in the experiment on SNB-19 CNS, in the experiment with TK-10 renal, in the experiment with OVCAR-5 ovarian, in the experiment with SNB-75 CNS, with HOP-62 NSCLC and in the experiment on LOX IMVI melanoma was more than 100 µM in each case. Also, the TGI in the experiment with RPMI-8226 leukemia, in the experiment with OVCAR-3 ovarian, in the experiment on NCI-H460 lung and in the experiment with NCI-H226 lung was more than 100 µM each time.
Consider `CO[C@@H]1CCN(c2nccc(Nc3cc4c(C(C)C)ccc(N5CC(CS(C)(=O)=O)[C@H]5C)c4cn3)n2)C[C@@H]1F` (stereo not given in full), for which the GI50 in the experiment with SNB-19 CNS was 5.19 µM; with TK-10 renal, 0.843 µM; with OVCAR-5 ovarian it was 6.36 µM; in the experiment on SNB-75 CNS it was 5.85 µM; in the experiment with HOP-62 NSCLC, 4.46 µM; in the experiment with LOX IMVI melanoma, 4.34 µM. Moreover, the GI50 in the experiment on RPMI-8226 leukemia is 2.14 µM; in the experiment with OVCAR-3 ovarian, 3.07 µM; in the experiment with NCI-H460 lung, 3.51 µM; in the experiment with NCI-H226 lung, 6.17 µM. The TGI was more than 100 µM in the experiment on SNB-19 CNS; 19.9 µM in the experiment on TK-10 renal; more than 100 µM with OVCAR-5 ovarian; more than 100 µM in the experiment on SNB-75 CNS; more than 100 µM in the experiment on HOP-62 NSCLC; 16.8 µM with LOX IMVI melanoma. The TGI in the experiment with RPMI-8226 leukemia was 7.33 µM; in the experiment with OVCAR-3 ovarian, more than 100 µM; in the experiment with NCI-H460 lung, 20.5 µM; with NCI-H226 lung, 62.9 µM.
As for `CS(=O)(=O)Nc1cc(-c2ccc3ncnc(Nc4ccc(F)c(Cl)c4)c3c2)cnc1Cl`, the GI50 in the experiment on SNB-19 CNS is 0.673 µM and 0.596 µM; in the experiment with TK-10 renal it was 0.261 µM; in the experiment with OVCAR-5 ovarian it was 0.214 µM and 0.533 µM; with SNB-75 CNS, 0.132 µM and 0.0697 µM; in the experiment on HOP-62 NSCLC it was 0.295 µM and 1.12 µM; in the experiment on LOX IMVI melanoma, 0.503 µM and 0.468 µM. The GI50 with RPMI-8226 leukemia is 0.444 µM and 0.598 µM; in the experiment on OVCAR-3 ovarian, 0.36 µM and 0.616 µM; in the experiment on NCI-H460 lung it was 0.753 µM and 0.98 µM; with NCI-H226 lung, 1.63 µM and 1.33 µM. In addition, the TGI is 10.1 µM and 7.92 µM in the experiment on SNB-19 CNS; 2.28 µM with TK-10 renal; 4.93 µM and 8.78 µM in the experiment with OVCAR-5 ovarian; 1.28 µM and 0.812 µM in the experiment on SNB-75 CNS; 9.01 µM and 27.1 µM with HOP-62 NSCLC; 3.49 µM and 2.78 µM with LOX IMVI melanoma. The TGI with RPMI-8226 leukemia was 2.67 µM and 3.4 µM; with OVCAR-3 ovarian, 1.92 µM and 5.33 µM; in the experiment on NCI-H460 lung it was 11.5 µM and 12.9 µM; in the experiment with NCI-H226 lung it was 22.9 µM and 13.7 µM.
For the compound `COc1cccc(/C=C/c2nc3c(cnn3-c3ccccc3)c(=O)[nH]2)c1`, the GI50 with SNB-19 CNS was more than 51.9 µM; with TK-10 renal it was more than 28.2 µM; in the experiment on OVCAR-5 ovarian, more than 100 µM; with SNB-75 CNS, more than 25 µM; in the experiment with HOP-62 NSCLC, 7.19 µM; with LOX IMVI melanoma it was more than 100 µM. The GI50 in the experiment with RPMI-8226 leukemia was more than 100 µM; with OVCAR-3 ovarian it was 24.9 µM; in the experiment with NCI-H460 lung it was more than 81.8 µM; in the experiment with NCI-H226 lung, more than 100 µM. Besides, the TGI with SNB-19 CNS is more than 100 µM; in the experiment with TK-10 renal, more than 100 µM; with OVCAR-5 ovarian it was more than 100 µM; with SNB-75 CNS, more than 89.3 µM; in the experiment with HOP-62 NSCLC, more than 100 µM; in the experiment on LOX IMVI melanoma it was more than 100 µM. Besides, the TGI in the experiment with RPMI-8226 leukemia, in the experiment on OVCAR-3 ovarian, in the experiment with NCI-H460 lung and with NCI-H226 lung was more than 100 µM each time.
